Measurements reported in ChEMBL document CHEMBL3124886, “Potent Hepatitis C Virus NS5A Inhibitors Containing a Benzidine Core” (ACS Med Chem Lett, 2014).
Blank lines part the entries; values can stand above or below the compound they belong to.

How the values were obtained:
[1] = test system: Hepatitis C virus; test: Antiviral activity against Hepatitis C virus type 2a expressing JFH1 assessed as inhibition of infection in human Huh7.5.1 cells after 3 days by luciferase reporter gene assay; assay type: functional, organism-based, Hepacivirus hominis; conditions: genotype 2a, Huh-7, 72 h
[2] = molecular target: T1, CYP1A2 (Homo sapiens, UniProt P05177); test: Inhibition of CYP1A2 (unknown origin) at 10 uM relative to control; assay type: ADME
T1 sequence (P05177 whole entry): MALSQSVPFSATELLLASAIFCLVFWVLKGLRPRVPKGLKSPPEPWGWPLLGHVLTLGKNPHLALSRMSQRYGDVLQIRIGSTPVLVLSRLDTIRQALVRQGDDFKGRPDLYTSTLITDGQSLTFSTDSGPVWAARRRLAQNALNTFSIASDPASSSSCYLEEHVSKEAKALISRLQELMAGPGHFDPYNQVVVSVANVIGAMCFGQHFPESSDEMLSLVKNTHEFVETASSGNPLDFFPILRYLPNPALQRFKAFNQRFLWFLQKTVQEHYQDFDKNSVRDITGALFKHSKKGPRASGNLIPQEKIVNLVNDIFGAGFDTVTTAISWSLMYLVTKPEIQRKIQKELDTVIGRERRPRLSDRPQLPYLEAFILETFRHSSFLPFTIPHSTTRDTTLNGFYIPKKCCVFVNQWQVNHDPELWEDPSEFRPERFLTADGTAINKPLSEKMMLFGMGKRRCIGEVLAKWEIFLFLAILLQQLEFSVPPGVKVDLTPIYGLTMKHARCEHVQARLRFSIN

[3] = molecular target: Voltage-gated inwardly rectifying potassium channel KCNH2 (Homo sapiens, UniProt Q12809); test: Binding affinity to human ERG by fluorescence polarization assay
Sequence of Voltage-gated inwardly rectifying potassium channel KCNH2 (Q12809 whole entry): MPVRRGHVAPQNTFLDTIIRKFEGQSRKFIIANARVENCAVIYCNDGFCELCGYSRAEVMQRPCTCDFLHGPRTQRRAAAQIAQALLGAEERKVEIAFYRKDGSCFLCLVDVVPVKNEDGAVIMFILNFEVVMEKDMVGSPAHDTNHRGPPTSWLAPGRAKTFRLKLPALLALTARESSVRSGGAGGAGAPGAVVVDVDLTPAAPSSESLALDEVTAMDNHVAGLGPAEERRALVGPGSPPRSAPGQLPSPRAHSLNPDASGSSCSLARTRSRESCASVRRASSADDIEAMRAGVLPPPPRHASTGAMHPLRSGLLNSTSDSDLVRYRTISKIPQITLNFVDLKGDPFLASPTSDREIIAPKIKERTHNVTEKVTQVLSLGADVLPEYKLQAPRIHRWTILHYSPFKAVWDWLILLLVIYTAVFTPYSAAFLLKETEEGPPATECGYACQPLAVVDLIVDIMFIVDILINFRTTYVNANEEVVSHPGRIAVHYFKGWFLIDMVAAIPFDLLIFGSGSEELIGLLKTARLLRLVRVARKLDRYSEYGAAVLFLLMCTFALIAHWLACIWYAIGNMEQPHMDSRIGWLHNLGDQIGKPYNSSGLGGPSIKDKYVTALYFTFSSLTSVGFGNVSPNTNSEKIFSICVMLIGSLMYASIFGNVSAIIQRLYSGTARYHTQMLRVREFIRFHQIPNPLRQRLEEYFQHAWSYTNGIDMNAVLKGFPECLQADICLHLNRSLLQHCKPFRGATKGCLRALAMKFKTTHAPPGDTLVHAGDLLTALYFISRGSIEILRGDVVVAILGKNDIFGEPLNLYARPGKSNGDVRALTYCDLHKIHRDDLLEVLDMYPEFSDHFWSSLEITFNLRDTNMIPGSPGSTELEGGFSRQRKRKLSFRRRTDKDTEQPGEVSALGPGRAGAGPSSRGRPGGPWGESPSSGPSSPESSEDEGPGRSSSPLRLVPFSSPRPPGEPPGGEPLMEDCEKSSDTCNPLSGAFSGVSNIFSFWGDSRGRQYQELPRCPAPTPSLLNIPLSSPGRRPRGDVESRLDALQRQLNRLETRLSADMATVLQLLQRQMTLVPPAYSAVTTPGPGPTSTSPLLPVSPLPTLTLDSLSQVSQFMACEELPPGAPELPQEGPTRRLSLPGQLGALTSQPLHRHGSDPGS

[4] = molecular target: CYP2D6 (Homo sapiens, UniProt P10635); test: Inhibition of CYP2D6 (unknown origin) at 10 uM relative to control; assay type: ADME
Sequence of CYP2D6 (P10635 whole entry): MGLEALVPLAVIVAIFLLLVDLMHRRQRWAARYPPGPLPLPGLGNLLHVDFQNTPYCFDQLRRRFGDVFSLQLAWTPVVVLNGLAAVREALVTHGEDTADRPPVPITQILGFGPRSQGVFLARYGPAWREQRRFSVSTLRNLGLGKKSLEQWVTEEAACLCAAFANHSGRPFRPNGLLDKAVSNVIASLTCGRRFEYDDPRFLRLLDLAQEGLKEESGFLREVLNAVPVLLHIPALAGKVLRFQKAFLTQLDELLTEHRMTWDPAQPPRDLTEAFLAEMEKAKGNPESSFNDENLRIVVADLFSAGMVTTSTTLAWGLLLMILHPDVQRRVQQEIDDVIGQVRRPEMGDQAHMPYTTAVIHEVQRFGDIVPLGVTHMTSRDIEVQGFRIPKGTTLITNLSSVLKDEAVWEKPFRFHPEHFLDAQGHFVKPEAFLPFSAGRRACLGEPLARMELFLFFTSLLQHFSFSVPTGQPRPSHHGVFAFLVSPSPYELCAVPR

[5] = Metabolic stability in rat plasma assessed as compound remaining at 2 uM after 1 hr; assay type: ADME, cell-free; conditions: read-out: Stability
[6] = Selectivity index, ratio of cytotoxicity for human Huh7.5.1 cells to EC50 for Hepatitis C virus type 2a; assay type: toxicity, cell-based, Huh-7; conditions: read-out: Selectivity Index
[7] = Metabolic stability in rat plasma assessed as compound remaining at 2 uM after 0.5 hrs; assay type: ADME, cell-free; conditions: read-out: Stability
[8] = Cytotoxicity against human Huh7.5.1 cells; assay type: cell-based; conditions: huh-7
[9] = test system: Hepatitis C virus; test: Antiviral activity against Hepatitis C virus genotype 1b expressed in human Huh7.5.1 cells coexpressing NKR2AN after 3 days by luciferase reporter gene assay; assay type: functional, organism-based, Hepacivirus hominis; conditions: Huh-7, 72 h
[10] = Selectivity index, ratio of cytotoxicity for human Huh7.5.1 cells to EC50 for Hepatitis C virus genotype 1b; assay type: toxicity, cell-based, Huh-7; conditions: read-out: Selectivity Index
[11] = Metabolic stability in rat plasma assessed as compound remaining at 2 uM after 4 hrs; assay type: ADME, cell-free; conditions: read-out: Stability
[12] = molecular target: CYP2C9 (Homo sapiens, UniProt P11712); test: Inhibition of CYP2C9 (unknown origin) at 10 uM relative to control; assay type: ADME
Sequence of CYP2C9 (P11712 whole entry): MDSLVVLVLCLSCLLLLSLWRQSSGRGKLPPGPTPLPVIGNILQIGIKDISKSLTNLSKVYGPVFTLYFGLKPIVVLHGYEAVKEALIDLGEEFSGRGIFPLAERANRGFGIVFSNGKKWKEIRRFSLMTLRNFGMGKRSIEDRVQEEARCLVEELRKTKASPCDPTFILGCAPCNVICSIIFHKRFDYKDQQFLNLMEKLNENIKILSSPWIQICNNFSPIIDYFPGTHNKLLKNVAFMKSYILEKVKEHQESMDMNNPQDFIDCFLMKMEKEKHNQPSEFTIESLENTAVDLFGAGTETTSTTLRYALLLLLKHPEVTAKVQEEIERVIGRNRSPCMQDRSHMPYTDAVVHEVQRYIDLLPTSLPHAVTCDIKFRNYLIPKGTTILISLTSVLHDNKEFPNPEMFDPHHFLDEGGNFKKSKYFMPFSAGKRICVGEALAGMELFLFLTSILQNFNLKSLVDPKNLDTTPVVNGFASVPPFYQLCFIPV

[13] = molecular target: CYP3A4 (Homo sapiens, UniProt P08684); test: Inhibition of CYP3A4 (unknown origin) at 10 uM relative to control; assay type: ADME
Sequence of CYP3A4 (P08684 whole entry): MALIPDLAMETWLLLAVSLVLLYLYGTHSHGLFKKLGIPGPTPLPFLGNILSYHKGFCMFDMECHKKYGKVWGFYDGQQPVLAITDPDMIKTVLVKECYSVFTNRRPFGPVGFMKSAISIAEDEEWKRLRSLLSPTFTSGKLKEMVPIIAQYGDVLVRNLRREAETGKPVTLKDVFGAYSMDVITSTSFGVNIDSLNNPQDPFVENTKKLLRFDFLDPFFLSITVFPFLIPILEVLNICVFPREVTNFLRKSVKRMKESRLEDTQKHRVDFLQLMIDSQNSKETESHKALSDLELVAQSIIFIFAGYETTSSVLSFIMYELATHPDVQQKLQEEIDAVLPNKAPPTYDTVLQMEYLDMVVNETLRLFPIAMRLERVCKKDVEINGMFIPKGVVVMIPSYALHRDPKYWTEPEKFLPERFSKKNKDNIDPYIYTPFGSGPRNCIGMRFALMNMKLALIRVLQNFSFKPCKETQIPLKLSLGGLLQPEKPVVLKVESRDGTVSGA

SMILES: COC(=O)N[C@@H](C(=O)N1CCC[C@H]1C(=O)Nc1ccc(-c2ccc(NC(=O)[C@@H]3CCCN3C(=O)[C@H](NC(=O)OC)C(C)C)cc2)cc1)C(C)C
- EC50 [1]: 15 nM

SMILES: COC(=O)N[C@@H](C(=O)N1CCC[C@H]1C(=O)Nc1ccc(-c2ccc(NC(=O)[C@@H]3CCCN3C(=O)[C@H](NC(=O)OC)c3ccccc3)cc2)cc1)c1ccccc1
- EC50 [1]: 0.26 nM
- inhibition at 10 µM [2]: 18.1%
- EC50 [3]: 9800 nM
- inhibition at 10 µM [4]: 0%
- remaining at 1 h, 2 µM [5]: > 99%
- selectivity ratio [6]: > 96000
- remaining at 0.5 h, 2 µM [7]: > 99%
- Activity [8]: > 25 µM
- EC50 [9]: 0.028 nM
- selectivity ratio [10]: > 893000
- remaining at 4 h, 2 µM [11]: > 99%
- inhibition at 10 µM [12]: 0%
- inhibition at 10 µM [13]: 23.9%

SMILES: CCN(CC)[C@@H](C(=O)N1CCC[C@H]1C(=O)Nc1ccc(-c2ccc(NC(=O)[C@@H]3CCCN3C(=O)[C@@H](c3ccccc3)N(CC)CC)cc2)cc1)c1ccccc1
- EC50 [1]: 2.2 nM
- selectivity ratio [6]: > 11000
- Activity [8]: > 25 µM
- EC50 [9]: 0.27 nM
- selectivity ratio [10]: > 93000

SMILES: O=C(Nc1ccc(-c2ccc(NC(=O)[C@@H]3CCCN3C(=O)[C@H]3CCCO3)cc2)cc1)[C@@H]1CCCN1C(=O)[C@H]1CCCO1
- EC50 [1]: 400 nM

SMILES: CC(=O)N1CCN(c2ccc(OCC3COC(Cn4ccnc4)(c4ccc(Cl)cc4Cl)O3)cc2)CC1 (racemic) [KETOCONAZOLE]
- inhibition at 10 µM [13]: 95.3%

SMILES: O=c1cc(-c2ccccc2)oc2c1ccc1ccccc12 [ALPHA-NAPHTHOFLAVONE]
- inhibition at 10 µM [2]: 98.6%

SMILES: C=C[C@H]1C[N@@]2CC[C@H]1C[C@@H]2[C@@H](O)c1ccnc2ccc(OC)cc12 [QUINIDINE]
- inhibition at 10 µM [4]: 95.1%

More lines, main results first:

- EC50 [1]: 120 nM
SMILES: COC(=O)N[C@H](C(=O)N1CCC[C@H]1C(=O)Nc1ccc(-c2ccc(NC(=O)[C@@H]3CCCN3C(=O)[C@@H](NC(=O)OC)C(C)C)cc2)cc1)C(C)C

- EC50 [1]: 2.3 nM
- EC50 [9]: 0.43 nM
SMILES: CN(C)[C@@H](C(=O)N1CCC[C@H]1C(=O)Nc1ccc(-c2ccc(NC(=O)[C@@H]3CCCN3C(=O)[C@@H](c3ccccc3)N(C)C)cc2)cc1)c1ccccc1
- selectivity ratio [6]: > 11000
- Activity [8]: > 25 µM
- selectivity ratio [10]: > 58000

- EC50 [1]: > 1000 nM
SMILES: COC(=O)N[C@@H](C)C(=O)N1CCC[C@H]1C(=O)Nc1ccc(-c2ccc(NC(=O)[C@@H]3CCCN3C(=O)[C@H](C)NC(=O)OC)cc2)cc1

- EC50 [1]: 24 nM
SMILES: COC(=O)N[C@H](C(=O)N1CCC[C@H]1C(=O)Nc1ccc(-c2ccc(NC(=O)[C@@H]3CCCN3C(=O)[C@@H](NC(=O)OC)C(C)(C)C)cc2)cc1)C(C)(C)C

- inhibition at 10 µM [12]: 75.8%
SMILES: Nc1ccc(S(=O)(=O)Nc2ccnn2-c2ccccc2)cc1 [SULFAPHENAZOLE]
